Data from PubChem BioAssay (NCI).
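Five concentrations, 48 hours, 96-well plates. GI50 marks 50% less growth. TGI: concentration producing complete growth inhibition.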

Experiments:
Experiment in all cases: NCI tumour cell line growth inhibition, 48 h
[1] = system: SK-OV-3 ovarian
[2] = system: NCI-H23 lung
[3] = system: NCI/ADR-RES ovarian
[4] = system: SK-MEL-5 melanoma
[5] = system: UACC-257 melanoma
[6] = system: T-47D breast
[7] = system: SNB-19 CNS
[8] = system: RPMI-8226 leukemia
[9] = system: SF-268 CNS
[10] = system: TK-10 renal
[11] = system: ACHN renal
[12] = system: HCT-15 colon
[13] = system: UACC-62 melanoma
[14] = system: HCC-2998 colon
[15] = system: CCRF-CEM leukemia
[16] = system: MALME-3M melanoma
[17] = system: OVCAR-3 ovarian
[18] = system: RXF 393 renal
[19] = system: HS 578T breast
[20] = system: KM12 colon
[21] = system: 786-0 renal
[22] = system: SF-539 CNS
[23] = system: HT29 colon
[24] = system: MCF7 breast
[25] = system: OVCAR-5 ovarian
[26] = system: U251 CNS
[27] = system: NCI-H460 lung
[28] = system: LOX IMVI melanoma

Cn1cc(C2=C(n3ccc4ccccc43)C(=O)NC2=O)c2ccccc21
GI50 [1]: > 25 µM | TGI [1]: > 25 µM | GI50 [2]: > 25 µM | TGI [2]: > 25 µM | GI50 [3]: > 25 µM | TGI [3]: > 25 µM | GI50 [4]: > 25 µM | TGI [4]: > 25 µM | GI50 [5]: > 25 µM | TGI [5]: > 25 µM | GI50 [6]: > 25 µM | TGI [6]: > 25 µM | GI50 [7]: > 25 µM | TGI [7]: > 25 µM | GI50 [8]: > 25 µM | TGI [8]: > 25 µM | GI50 [9]: > 25 µM | TGI [9]: > 25 µM | GI50 [10]: > 25 µM | TGI [10]: > 25 µM | GI50 [11]: > 25 µM | TGI [11]: > 25 µM | GI50 [12]: > 25 µM | TGI [12]: > 25 µM | GI50 [13]: > 25 µM | TGI [13]: > 25 µM | GI50 [14]: > 25 µM | TGI [14]: > 25 µM | GI50 [15]: > 25 µM | TGI [15]: > 25 µM | GI50 [16]: > 25 µM | TGI [16]: > 25 µM | GI50 [17]: > 25 µM | TGI [17]: > 25 µM | GI50 [18]: > 25 µM | TGI [18]: > 25 µM | GI50 [19]: > 25 µM | TGI [19]: > 25 µM | GI50 [20]: > 25 µM | TGI [20]: > 25 µM | GI50 [21]: > 25 µM | TGI [21]: > 25 µM | GI50 [22]: > 25 µM | TGI [22]: > 25 µM | GI50 [23]: > 25 µM | TGI [23]: > 25 µM | GI50 [24]: > 25 µM | TGI [24]: > 25 µM | GI50 [25]: > 25 µM | TGI [25]: > 25 µM | GI50 [26]: > 25 µM | TGI [26]: > 25 µM | GI50 [27]: > 25 µM | TGI [27]: > 25 µM | GI50 [28]: > 25 µM
